Data taken from patent US8906928B2, “Substituted pyrazolo-pyrrolo-pyridine-dione compounds” (ArQule, Inc., priority 2009, dated 2014).

How the values were obtained:
Type in all cases: cell-based
DLD-1 = assay: MTS assay (cell growth inhibition), DLD-1; conditions: DLD-1 cells, 72 hours incubation with test compound; concentration not given
Outline: (§1)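 First, seed 3000 cells per well in low-serum (1% FBS) DMEM and culture 18 h. Next, add compounds prepared at 300× in DMSO and diluted 1:40 in DMEM; incubate 72 h. Finally, add MTS/PMS for 4 h and measure absorbance at 492 nm.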

NCI-H1299 = assay: MTS assay (cell growth inhibition), NCI-H1299; conditions: NCI-H1299 cells, 72 hours incubation with test compound; concentration not given
Outline: as §1

PC-3 = assay: MTS assay (cell growth inhibition), PC-3; conditions: PC-3 cells, 72 hours incubation with test compound; concentration not given
Outline: as §1

Kato III = assay: MTS assay (cell growth inhibition), Kato III; conditions: Kato III cells, 72 hours incubation with test compound; concentration not given
Outline: as §1

PACA-2 = assay: MTS assay (cell growth inhibition), PACA-2; conditions: PACA-2 cells, 72 hours incubation with test compound; concentration not given
Outline: as §1

MDA-MB = assay: MTS assay (cell growth inhibition), MDA-MB; conditions: MDA-MB cells, 72 hours incubation with test compound; concentration not given
Outline: as §1

Row | Structure (SMILES) | MTS CELL KILL DATA (% INHIBITION) DLD-1 (DLD-1) | MTS CELL KILL DATA (% INHIBITION) NCI-H1299 (NCI-H1299) | MTS CELL KILL DATA (% INHIBITION) PC-3 (PC-3) | MTS CELL KILL DATA (% INHIBITION) Kato III (Kato III) | MTS CELL KILL DATA (% INHIBITION) PACA-2 (PACA-2) | MTS CELL KILL DATA (% INHIBITION) MDA-MB (MDA-MB)
1 | O=C1c2cnc3[nH]ncc3c2C(=O)N1Cc1ccccc1I [Example 111, 7-(2-iodobenzyl)pyrazolo[3,4-b]pyrrolo[3,4-d]pyridine-6,8(3H,7H)-dione] | C (C = <50% INHIBITION) | C (C = <50% INHIBITION) | C (C = <50% INHIBITION) | C (C = <50% INHIBITION) | C (C = <50% INHIBITION) | C (C = <50% INHIBITION)
2 | O=C1c2cnc3[nH]ncc3c2C(=O)N1CCOc1ccccc1Cl [Example 25, 7-[2-(2-chlorophenoxy)ethyl]pyrazolo[3,4-b]pyrrolo[3,4-d]pyridine-6,8(3H,7H)-dione] | C (C = <50% INHIBITION) | C (C = <50% INHIBITION) | A (A = 80-100% INHIBITION) | C (C = <50% INHIBITION) | C (C = <50% INHIBITION) | A (A = 80-100% INHIBITION)
3 | NC(=O)c1ccc(-c2n[nH]c3ncc4c(c23)C(=O)N(CCc2ccccc2)C4=O)cc1 [Example 160, 4-[6,8-dioxo-7-(2-phenylethyl)-3,6,7,8-tetrahydropyrazolo[3,4-b]pyrrolo[3,4-d]pyridin-1-yl]benzamide] | A (A = 80-100% INHIBITION) | B (B = 50-79% INHIBITION) | A (A = 80-100% INHIBITION) | A (A = 80-100% INHIBITION) | A (A = 80-100% INHIBITION) | A (A = 80-100% INHIBITION)
4 | O=C1c2cnc3[nH]ncc3c2C(=O)N1Cc1c(F)ccc(Cl)c1Cl [Example 97, 7-(2,3-dichloro-6-fluorobenzyl)pyrazolo[3,4-b]pyrrolo[3,4-d]pyridine-6,8(3H,7H)-dione] | C (C = <50% INHIBITION) | C (C = <50% INHIBITION) | C (C = <50% INHIBITION) | C (C = <50% INHIBITION) | C (C = <50% INHIBITION) | C (C = <50% INHIBITION)
5 | CC(C)c1ccc(CN2C(=O)c3cnc4[nH]ncc4c3C2=O)cc1 [Example 14, 7-(4-isopropylbenzyl)pyrazolo[3,4-b]pyrrolo[3,4-d]pyridine-6,8(3H,7H)-dione] | C (C = <50% INHIBITION) | C (C = <50% INHIBITION) | A (A = 80-100% INHIBITION) | B (B = 50-79% INHIBITION) | C (C = <50% INHIBITION) | A (A = 80-100% INHIBITION)
6 | O=C1c2cnc3[nH]ncc3c2C(=O)N1Cc1cc(Cl)ccc1Cl [Example 61, 7-(2,5-dichlorobenzyl)pyrazolo[3,4-b]pyrrolo[3,4-d]pyridine-6,8(3H,7H)-dione] | B (B = 50-79% INHIBITION) | C (C = <50% INHIBITION) | C (C = <50% INHIBITION) | B (B = 50-79% INHIBITION) | C (C = <50% INHIBITION) | A (A = 80-100% INHIBITION)
